target: human RAF1 (Homo sapiens, UniProt P04049); assay: Protein kinase assay (33P-ATP filter binding), human RAF1, 10-dose IC50; assay type: biochemical; conditions: MEK1 (K97R) substrate 3 micromolar, ATP 10 micromolar, read-out: RAF-1 IC50
Protocol: In brief, for each reaction, kinase and substrate were mixed in a buffer containing 20 mM HEPES (pH 7.5), 10 mM MgCl2, 1 mM EGTA, 0.02% Brij35, 0.02 mg/mL BSA, 0.1 mM Na3VO4, 2 mM DTT, and […]. All compounds were solubilized in DMSO. Compounds were then added to each reaction mixture via acoustic dispense using an ECHO 550 nanoliter dispenser. For human RAF1 testing, human MEK1 (K97R) was used as a substrate at a concentration of 3 micromolar, with a final ATP concentration of 10 micromolar. […] Reactions were carried out at room temperature for 2 hr and spotted onto P81 ion exchange cellulose chromatography paper (Reaction Biology). […] The percent remaining kinase activity relative to a vehicle-containing (DMSO) kinase reaction was calculated for each kinase/inhibitor pair. IC50 values were calculated using Prism 5 (GraphPad).

Sequence of human RAF1 (P04049 whole entry): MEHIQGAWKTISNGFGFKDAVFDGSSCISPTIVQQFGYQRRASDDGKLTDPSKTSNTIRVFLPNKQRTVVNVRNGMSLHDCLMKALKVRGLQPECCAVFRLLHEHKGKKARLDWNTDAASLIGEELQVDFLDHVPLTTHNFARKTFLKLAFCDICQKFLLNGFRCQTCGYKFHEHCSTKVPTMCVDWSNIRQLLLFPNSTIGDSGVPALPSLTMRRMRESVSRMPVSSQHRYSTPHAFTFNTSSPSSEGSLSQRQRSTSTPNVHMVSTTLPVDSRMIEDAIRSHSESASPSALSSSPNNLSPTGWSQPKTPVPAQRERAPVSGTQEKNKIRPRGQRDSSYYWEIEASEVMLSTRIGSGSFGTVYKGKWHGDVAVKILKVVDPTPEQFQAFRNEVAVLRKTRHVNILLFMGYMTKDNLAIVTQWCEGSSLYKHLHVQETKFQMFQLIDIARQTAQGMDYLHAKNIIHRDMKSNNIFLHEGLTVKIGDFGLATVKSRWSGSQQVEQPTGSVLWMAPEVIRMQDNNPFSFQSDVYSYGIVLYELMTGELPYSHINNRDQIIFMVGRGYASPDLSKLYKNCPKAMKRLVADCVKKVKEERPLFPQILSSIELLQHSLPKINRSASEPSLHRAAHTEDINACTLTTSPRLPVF

| Structure (SMILES) | IC50 |
| --- | --- |
| Cc1cc(F)c(NC(=O)N2CCCC3C2C3C(F)(F)F)cc1-c1cc(OCCO)nc(N2CCOCC2)c1 (single isomer, unassigned) [Example 111, N-[2-fluoro-5-[2-(2-hydroxyethoxy)-6-(morpholin-4-yl)pyridin-4-yl]-4-methylphenyl]-7-(trifluoromethyl)-2-aabicyclo[4.1.0]heptane-2-carboxamide] | < 10 nM |
| Cc1cc(F)c(NC(=O)N2CCOC(C(F)(F)F)C2C)cc1-c1cc(OCCO)nc(N2CCOCC2)c1 (single isomer, unassigned) [Example 112] | < 10 nM |
| Cc1cc(F)c(NC(=O)N2CCOC(C(F)(F)F)C2C)cc1-c1cc(OCCO)nc(N2CCOCC2)c1 (single isomer, unassigned) [Example 113] | < 10 nM |
| Cc1ccc(NC(=O)N2CC[C@@H](SC(F)(F)F)C2)cc1-c1cc(OCCO)nc(N2CCOCC2)c1 (single isomer, unassigned) [Example 117] | < 10 nM |
| Cc1ccc(NC(=O)N2CC[C@H](SC(F)(F)F)C2)cc1-c1cc(OCCO)nc(N2CCOCC2)c1 (single isomer, unassigned) [Example 118] | < 10 nM |
| Cc1ccc(NC(=O)N2CC[C@@H](C(F)(F)F)C2)cc1-c1cnc(OC2CCOCC2)c(N2CCOCC2)c1 (single isomer, unassigned) [Example 119] | < 10 nM |
| Cc1ccc(NC(=O)N2CC[C@H](C(F)(F)F)C2)cc1-c1cnc(OC2CCOCC2)c(N2CCOCC2)c1 (single isomer, unassigned) [Example 120] | < 10 nM |
| Cc1ccc(NC(=O)N2CCC3(CCC3(F)F)C2)cc1-c1cc(OCCO)nc(N2CCOCC2)c1 (single isomer, unassigned) [Example 121, 1,1-difluoro-N-[3-[2-(2-hydroxyethoxy)-6-(morpholin-4-yl)pyridin-4-yl]-4-methylphenyl]-6-azaspiro[3.4]octane-6-carboxamide] | < 10 nM |
| Cc1ccc(NC(=O)N2CCC3(CCC3(F)F)C2)cc1-c1cc(OCCO)nc(N2CCOCC2)c1 (single isomer, unassigned) [Example 122, 1,1-difluoro-N-[3-[2-(2-hydroxyethoxy)-6-(morpholin-4-yl)pyridin-4-yl]-4-methylphenyl]-6-azaspiro[3.4]octane-6-carboxamide] | < 10 nM |
| Cc1ccc(NC(=O)N2CC[C@@H](OC(F)(F)F)C2)cc1-c1cc(OCCO)nc(N2CCOCC2)c1 (single isomer, unassigned) [Example 124] | < 10 nM |
| Cc1cc(F)c(NC(=O)N2CC[C@@H](CC(F)(F)F)C2)cc1-c1cc(O[C@H](C)CO)nc(N2CCOCC2)c1 (single isomer, unassigned) [Example 182] | < 10 nM |
| Cc1cc(F)c(NC(=O)N2CC[C@H](CC(F)(F)F)C2)cc1-c1cc(OC[C@@H](C)O)nc(N2CCOCC2)c1 (single isomer, unassigned) [Example 183] | < 10 nM |
| Cc1cc(F)c(NC(=O)N2CC[C@H](CC(F)(F)F)C2)cc1-c1cc(O[C@H](C)CO)nc(N2CCOCC2)c1 (single isomer, unassigned) [Example 184] | < 10 nM |
| Cc1ccc(NC(=O)N2CC[C@@H](CC(F)(F)F)C2)cc1-c1cnc(OC2CCOCC2)c(N2CCOCC2)c1 (single isomer, unassigned) [Example 193] | < 10 nM |
| Cc1ccc(NC(=O)N2CC[C@H](CC(F)(F)F)C2)cc1-c1cnc(OC2CCOCC2)c(N2CCOCC2)c1 (single isomer, unassigned) [Example 194] | < 10 nM |
| Cc1cc(F)c(NC(=O)N2CCC(CC(F)(F)F)C2)cc1-c1cc(OCCO)nc(N2CCOCC2)c1 (stereo in doubt) [Example 37, (3R)-N-[2-fluoro-5-[2-(2-hydroxyethoxy)-6-(morpholin-4-yl)pyridin-4-yl]-4-methylphenyl]-3-(2,2,2-trifluoroethyl)pyrrolidine-1-carboxamide] | < 10 nM |
| CC(C#N)=C1CCN(C(=O)Nc2cc(-c3cc(OCCO)nc(N4CCOCC4)c3)c(C)cc2F)C1 (stereo in doubt) [Example 97, (3E)-3-(1-cyanoethylidene)-N-[2-fluoro-5-[2-(2-hydroxyethoxy)-6-(morpholin-4-yl)pyridin-4-yl]-4-methylphenyl]pyrrolidine-1-carboxamide] | < 10 nM |
| Cc1ccc(NC(=O)N2CC[C@H](OC(F)(F)F)C2)cc1-c1cc(OCC(C)O)nc(N2CCOCC2)c1 (stereo in doubt) [Example 152, (3S)-N-(3-[2-[(2R)-2-hydroxypropoxy]-6-(morpholin-4-yl)pyridin-4-yl]-4-methylphenyl)-3-(trifluoromethoxy)pyrrolidine-1-carboxamide] | < 10 nM |
| Cc1ccc(NC(=O)N2CC[C@H](OC(F)(F)F)C2)cc1-c1cc(OC(C)CO)nc(N2CCOCC2)c1 (stereo in doubt) [Example 153, (3S)-N-[3-(2-[[(2R)-1-hydroxypropan-2-yl]oxy]-6-(morpholin-4-yl)pyridin-4-yl)-4-methylphenyl]-3-(trifluoromethoxy)pyrrolidine-1-carboxamide] | < 10 nM |
| Cc1cc(F)c(NC(=O)N2CC[C@@H](C(F)(F)F)C2)cc1-c1cnc(OCCO)c(N2CCOCC2)c1 [Example 12] | < 10 nM |
| Cc1cc(F)c(NC(=O)N2CC[C@H](C(F)(F)F)C2)cc1-c1cnc(OCCO)c(N2CCOCC2)c1 [Example 13, (3S)-N-[2-fluoro-5-[6-(2-hydroxyethoxy)-5-(morpholin-4-yl)pyridin-3-yl]-4-methylphenyl]-3-(trifluoromethyl)pyrrolidine-1-carboxamide] | < 10 nM |
| Cc1cc(F)c(NC(=O)N2CCC3(CC3)C2)cc1-c1cc(OCCO)nc(N2CCOCC2)c1 [Example 18, N-[2-fluoro-5-[2-(2-hydroxyethoxy)-6-(morpholin-4-yl)pyridin-4-yl]-4-methylphenyl]-5-azaspiro[2.4]heptane-5-carboxamide] | < 10 nM |
| Cc1cc(F)c(NC(=O)N2CCC(C)(C)C2)cc1-c1cc(OCCO)nc(N2CCOCC2)c1 [Example 19, N-[2-fluoro-5-[2-(2-hydroxyethoxy)-6-(morpholin-4-yl)pyridin-4-yl]-4-methylphenyl]-3,3-dimethylpyrrolidine-1-carboxamide] | < 10 nM |
| Cc1cc(F)c(NC(=O)N2CCC(F)(F)CC2)cc1-c1cc(OCCO)nc(N2CCOCC2)c1 [Example 20, 4,4-difluoro-N-[2-fluoro-5-[2-(2-hydroxyethoxy)-6-(morpholin-4-yl)pyridin-4-yl]-4-methylphenyl]piperidine-1-carboxamide] | 10 to 100 nM |
| Cc1cc(F)c(NC(=O)N2CC(C(F)F)C2)cc1-c1cc(OCCO)nc(N2CCOCC2)c1 [Example 21, 3-(difluoromethyl)-N-[2-fluoro-5-[2-(2-hydroxyethoxy)-6-(morpholin-4-yl)pyridin-4-yl]-4-methylphenyl]azetidine-1-carboxamide] | 10 to 100 nM |
| Cc1cc(F)c(NC(=O)N2CC(F)(F)C(F)(F)C2)cc1-c1cc(OCCO)nc(N2CCOCC2)c1 [Example 22, 3,3,4,4-tetrafluoro-N-[2-fluoro-5-[2-(2-hydroxyethoxy)-6-(morpholin-4-yl)pyridin-4-yl]-4-methylphenyl]pyrrolidine-1-carboxamide] | < 10 nM |
| Cc1cc(F)c(NC(=O)N2CCCC(F)(F)C2)cc1-c1cc(OCCO)nc(N2CCOCC2)c1 [Example 24, 3,3-difluroo-N-(2-fluoro-5-(2-(2-hydroxyethoxy)-6-morpholinopyridin-4-yl)-4-methylphenyl)piperidine-1-carboxamide] | 10 to 100 nM |

From patent US20230081390A1, “INHIBITORS OF RAF KINASES” (Kinnate Biopharma Inc., priority 2019, published 2023)
